In the NIST ThermoML archive (doi:10.1016/j.jct.2016.01.003):
Numbers after ± are expanded uncertainties.

Legend:
[1] = Crystal
[2] = Molar enthalpy of transition or fusion; conditions: Crystal; DSC

mass density ([1]; 298.15 K, 101.33 kPa, flotation method): 1397 ± 2 kg/m3 | Normal melting temperature ([1]; DTA): 192.90 ± 1.1 °C | Molar enthalpy of transition or fusion [2]: 29.1 ± 0.99 kJ/mol
SMILES: O=C1c2cccc(Cl)c2C(=O)N1c1ccccc1 [3-chloro-N-phenylphthalimide]
